Where two headings read alike, the source gives them in different places.
Experiments:
[1] = tested on: ALK2 (Q207D); details: mouse model expressing a constitutively active form of ALK2 (Q207D); cited from earlier work
[2] = biological target: T1, AMPK (AMPK-A1/B1/G1) (Homo sapiens, UniProt Q13131); test: In vitro kinase assay; type: biochemical; details: 10-dose, 3-fold dilution from 100 μM, 10 μM ATP
[3] = Intrinsic clearance in hepatic microsomes; type: in vitro ADME; details: human
[4] = Intrinsic clearance in hepatic microsomes; type: in vitro ADME; details: rat
[5] = Intrinsic clearance in hepatic microsomes; type: in vitro ADME; details: mouse
[6] = biological target: T1, AMPK (AMPK-A1/B1/G1); details: reference compounds previously run in these assays; cited from earlier work
[7] = predicted from microsomal intrinsic clearance

T1 sequence (Q13131 whole entry): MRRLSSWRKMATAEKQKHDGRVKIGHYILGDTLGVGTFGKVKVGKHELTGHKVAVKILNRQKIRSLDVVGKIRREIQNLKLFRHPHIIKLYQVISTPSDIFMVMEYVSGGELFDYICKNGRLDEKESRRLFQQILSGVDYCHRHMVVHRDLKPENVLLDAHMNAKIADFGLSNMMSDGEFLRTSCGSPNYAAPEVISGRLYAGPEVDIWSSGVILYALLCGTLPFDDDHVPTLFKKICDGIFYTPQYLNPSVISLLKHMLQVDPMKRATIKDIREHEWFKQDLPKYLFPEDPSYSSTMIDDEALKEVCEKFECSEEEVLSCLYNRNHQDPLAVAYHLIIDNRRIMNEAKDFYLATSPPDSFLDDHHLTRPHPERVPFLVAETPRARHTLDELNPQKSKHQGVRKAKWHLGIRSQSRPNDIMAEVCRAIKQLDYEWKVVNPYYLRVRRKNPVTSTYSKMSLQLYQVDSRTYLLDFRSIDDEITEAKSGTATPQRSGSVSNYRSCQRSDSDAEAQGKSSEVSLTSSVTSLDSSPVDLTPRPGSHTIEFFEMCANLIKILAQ
T1 sequence (Q9Y478 whole entry partner): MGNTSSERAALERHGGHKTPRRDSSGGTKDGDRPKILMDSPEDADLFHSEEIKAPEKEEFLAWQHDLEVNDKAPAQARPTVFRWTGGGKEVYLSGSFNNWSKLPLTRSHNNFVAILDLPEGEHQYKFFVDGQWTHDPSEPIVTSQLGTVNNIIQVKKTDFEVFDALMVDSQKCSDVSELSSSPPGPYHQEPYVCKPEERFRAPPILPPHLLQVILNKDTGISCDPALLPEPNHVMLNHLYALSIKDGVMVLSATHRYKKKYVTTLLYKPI
T1 sequence (P54619 whole entry partner): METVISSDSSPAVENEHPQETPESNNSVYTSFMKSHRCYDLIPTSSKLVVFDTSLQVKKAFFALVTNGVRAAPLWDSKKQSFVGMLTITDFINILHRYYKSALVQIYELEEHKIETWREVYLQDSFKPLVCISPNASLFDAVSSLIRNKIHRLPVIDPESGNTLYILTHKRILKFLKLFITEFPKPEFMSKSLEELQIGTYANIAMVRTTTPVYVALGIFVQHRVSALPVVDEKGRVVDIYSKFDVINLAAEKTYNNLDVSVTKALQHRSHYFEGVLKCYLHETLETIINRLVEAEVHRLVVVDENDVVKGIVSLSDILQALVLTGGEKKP

Structure (SMILES): c1ccc2c(-c3cnn4cc(-c5ccc(N6CCNCC6)cc5)cnc34)ccnc2c1 [LDN-193189, 2, LDN-193189]
- effect on ectopic ossification (in words) [1]: could blunt ectopic ossification

Structure (SMILES): COc1ccc(-c2cnc3c(-c4cccc5ncccc45)cnn3c2)cc1 [7g]
- IC50 AMPK [2]: Inactive
- CLint scaled ([3]; liver microsomes): 516 mL/min/kg
- CLHEP [3, 7]: 20.2 mL/min/kg
- CLint scaled ([4]; liver microsomes): 148 mL/min/kg
- CLHEP [4, 7]: 47.5 mL/min/kg
- CLint scaled ([5]; liver microsomes): 617 mL/min/kg
- CLHEP [5, 7]: 78.5 mL/min/kg

Structure (SMILES): CC(C)Oc1ccc(-c2cnc3c(-c4ccnc5ccccc45)cnn3c2)cc1 [DMH1, 3, DMH1]
- IC50 AMPK [6]: Inactive

From article PMC3677712 (Bioorganic & medicinal chemistry letters, 2013)
